Measurements: patent US20180103845A1, “METHOD FOR ASSESSING IRRITANCY TO BIOLOGICAL SAMPLES” (OLYMPUS CORPORATION, priority 2016, published 2018)

Test system: human skin models based on SkinEthic RHE
Experiment: Skin irritation test on three-dimensional human skin model (TG439 exposure, Nuclear-ID live/dead nuclear fluorescence, 3D confocal imaging)
Experimental: As such a biological sample 1, a three-dimensional human skin model approved in the OECD Testing Guidelines (TG) 439 (In Vitro Skin Irritation: Reconstructed Human Epidermis Test Method), such as SkinEthic RHE (manufactured by SkinEthic, France) having a thickness of about 100 μm, is favorably used. […] For irritancy assessment, dermal tissue may be contained in addition to the epidermis.
The chemical treatment step S1 is carried out in accordance with TG439. […]
Next, in the fluorescence labeling step S2, the nuclei of the cells in the biological tissues are fluorescence-labeled with a predetermined fluorescent marker. For fluorescence labeling, for example, a first fluorescent dye that specifically labels the nuclei of living cells, and a second fluorescent dye that emits fluorescence of a wavelength different from that of the first fluorescent dye and that specifically labels the nuclei of dead cells are used. […]
Next, in the image acquisition step S3, fluorescence images of the nuclei of living cells and the nuclei of dead cells at different depth positions in the biological sample are acquired using a fluorescence microscope.
FIGS. 5 and 6 show fluorescence images of biological samples exposed to 1% and 10% Triton-X, respectively. […] FIGS. 9 and 10 show fluorescence images of biological samples exposed to PBS and a 5% SDS solution, as controls. […]

Compound	three-dimensional structures of cells, such as the nuclei (human skin model exposed to 1% and 10% chemical (FIGS. 5 to 8), 42 min exposure, 42 h culture per TG439)	structures such as the nuclei of dead cells (human skin model exposed to 5% SDS solution, positive control (FIG. 10))
Triton-X	preserved	
CCCCCCCCCCCCOS(=O)(=O)[O-].[Na+] [SDS, sodium dodecyl sulphate]		disrupted
